Publication PMC12362585, “Development and Preclinical Characterization of [^18F]H3-2406 and [^18F]H3-2407 for Positron Emission Tomography Imaging of the Histamine Subtype‑3 Receptor” (Journal of Medicinal Chemistry, 2025)

Assays:
H3R [1] = biological target: T1, H3R (Homo sapiens, UniProt Q9Y5N1); assay: H3R competitive radioligand binding assay using [^3H]AZ13582963; details: competitive binding vs [^3H]AZ13582963; for Ki: read-out: H3R K i
T1 construct: Gifford Bioscience (contract laboratory that ran the assay)

[2] = Log D by shake-flask method; assay type: physicochemical; details: n-octanol/PBS
Description: To evaluate the binding affinities of compounds 1–9, competitive radioligand binding assays were conducted using [^3H]-AZ13582963 [4-(1S,2S)-2-(4-cyclobutylpiperazine-1-carbonyl)-cyclopropyl)-N-methyl-[2-^3 H]-benzamide]. […]. […]. Further, ACD Percepta predictions indicated these compounds are likely to cross the blood-brain barrier (BBB), as indicated by a log BB > −1 and a multiparameter optimization (MPO) score >4.0. High selectivity toward H3R over other CNS targets is essential for effective H3R PET imaging. Therefore, off-target screenings of compounds 2, 3, and 4 were conducted against various CNS receptors, G protein-coupled receptors (GPCRs), transporters, and ion channels at 10 μM (Figure S1). […]. Sigma-1 receptors, crucial for ion channel function and associated with learning, memory, and pain, , have shown synergy with H3R antagonists, including PF-03654746 and ABT-239, potentially enhancing in vivo efficacy.
The lipophilicity was measured according to previously reported methods. , In brief, PBS and n-octanol were premixed prior to the experiment. A solution containing 0.2 MBq of [^18F]3 or [^18F]4, PBS (3 mL) and n-octanol (3 mL) were prepared in a vial and vortexed for 5 min. The PBS and n-octanol layers were then separated and transferred into a centrifuge tube, followed centrifugation at 12,000 rpm for 5 min. Then PBS (0.5 mL) and n-octanol (0.05 mL) were weight and measured the radioactivity on a γ counter (PerkinElmer Wizard). The Log D values of [ ^18F]3 and [^18F]4 were calculated using the following formula: LogD=Log[(radioactivityn‐octanol/weightn‐octanol)/(radioactivityPBS/weightPBS)]

sigma-1 receptor [3] = biological target: T2, sigma-1 receptor (Homo sapiens, UniProt Q99720); assay: Off-target screening at 10 μM, sigma-1; assay type: binding
sigma-1 receptor [4] = biological target: T2, sigma-1 receptor; assay: sigma 1 binding assay; details: for Ki: read-out: sigma-1 K i; for selectivity of H3R over sigma-1: ratio of sigma-1 K i to H3R K i
[5] = biological target: 5-hydroxytryptamine receptor 2A (5-HT2A) (Homo sapiens, UniProt P28223); assay: Off-target screening at 10 μM, 5-HT2A; assay type: binding; details: read-out: inhibition of 5-HT2A
[6] = tested on: CNS receptors, GPCRs, transporters, and ion channels; assay: Off-target screening panel, CNS target selectivity; assay type: binding; details: H3R against most CNS targets
5-HT2C [7] = biological target: T3, 5-HT2C (Homo sapiens, UniProt P28335); assay: 5HT2C binding assay; details: read-out: 5-HT2C K i
T3 sequence (P28335 33-458): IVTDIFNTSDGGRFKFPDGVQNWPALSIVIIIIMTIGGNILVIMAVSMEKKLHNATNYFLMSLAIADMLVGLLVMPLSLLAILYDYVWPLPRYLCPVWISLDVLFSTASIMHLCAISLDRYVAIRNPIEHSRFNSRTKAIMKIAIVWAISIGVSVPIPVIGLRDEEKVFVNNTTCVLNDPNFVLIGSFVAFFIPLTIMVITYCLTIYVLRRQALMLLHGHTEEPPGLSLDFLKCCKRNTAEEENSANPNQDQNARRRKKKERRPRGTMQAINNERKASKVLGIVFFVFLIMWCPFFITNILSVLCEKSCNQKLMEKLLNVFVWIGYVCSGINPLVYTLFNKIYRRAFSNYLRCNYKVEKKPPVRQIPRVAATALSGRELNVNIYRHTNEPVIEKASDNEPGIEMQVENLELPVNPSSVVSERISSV

sigma-2 = sigma-2 (Homo sapiens, UniProt Q5BJF2); assay: Off-target screening at 10 μM, sigma-2; assay type: binding
5-HT2C [8] = biological target: T3, 5-HT2C; assay: Off-target screening at 10 μM, 5-HT2C; assay type: binding; details: read-out: inhibition of 5-HT2C
H3R [9] = biological target: T4, H3R (Rattus norvegicus, UniProt Q9QYN8); assay: In vitro autoradiography on rat brain sections; assay type: binding, SD rat
T4 construct: The brains of SD rat were sectioned into 15 μm slices; from tissue; host or cells: SD rat brain sections
Description: To validate the target specificity and selectivity, in vitro autoradiography experiments were conducted using [^18F]3 and [^18F]4 on rat brain sections. […] Furthermore, pretreatment with unlabeled compound 3 (10 μM) led to a signal reduction of over 90% in the brain. […] This discrepancy is likely attributable to additional off-target binding of [^18F]3, which is further supported by high uptake in the cerebellum – a region with low H3R expression. […] The high uptake in the cerebellum may be attributed to nonspecific binding to unidentified CNS targets. […] Nonetheless, the results support further in vivo PET evaluation to better understand their binding profiles and evaluate their potential for H3R imaging – particularly in regions with low sigma-1 abundance.
The ARG was measured according to previously reported methods. , The brains of SD rat were sectioned into 15 μm slices and stored in −80 °C. For each experiment, the brain slices allowed them to warm to room temperature and then incubated in Tris-HCl buffer (50 mM, containing 0.1% bovine serum albumin) for 10 min. The slices were incubated with [^18F]3 or [^18F]4 (0.037 MBq/mL) in the presence of either DMSO (baseline study), GSK189254 (10 μM, blocking study), and unlabeled 3 or 4 (10 μM, blocking study) at room temperature for 30 min. Following incubation, the brain slices were washed three times with cold Tris-HCl buffer (50 mM) for 5 min each, and then dipped in water 2 times for 5 s. The brain slices were dried under cold air and exposed to a Phosphor Screen (BAS IP MS2025, Cytiva) for 2 h. The radioactivity and imaging were captured using an Amersham Typhoon 5 (Cytiva) and the data were analyzed using ImageJ software.

H3R [10] = biological target: T5, H3R (Mus musculus, UniProt P58406); assay: Dynamic PET imaging in CD1 mice, baseline and H3R antagonist blocking; assay type: in vivo
T5 construct: dynamic PET imaging studies were conducted in CD1 mice; from tissue; host or cells: brain of living CD1 mice
Description: To elucidate the in vivo brain uptake of [^18F]3 and [^18F]4, dynamic PET imaging studies were conducted in CD1 mice (an outbred strain of immunocompetent mice commonly used for pharmacokinetic and biodistribution studies) for 60 min. The results, which include summed PET images (0–60 min), whole-brain time-activity curves (TACs), and area under the curve (AUC) for both radioligands, are depicted in Figures and . At baseline, [^18F]3 rapidly crossed the BBB following intravenous injection, reaching peak whole-brain uptake with a standardized uptake value (SUV) value of 2.4 at 2.3 min. This was followed by a gradual washout and reached a SUV of 1.87 by 60 min. To evaluate the binding characteristics of [^18F]3, elective H3R antagonists with distinct structural scaffolds, GSK189254, enerisant, and cipralisant, were used as blocking agents. […] Quantification of specific tracer binding was performed using volume of distribution (V T) values, derived from compartmental modeling and an image-derived input function (IDIF). […] While these findings support the utility of [^18F]3 for in vivo studies, we acknowledge the inherent limitations of IDIF, including the lack of metabolite correction and potential inaccuracies in capturing early phase kinetics.
PET imaging was conducted following previously reported methods. CD1 mice (5–6 weeks) were anesthetized with 1.5% (v/v) isoflurane during the scan. A dose of 3.0 MBq of [^18F]3 or [^18F]4 was intravenously injected into the tail vein, and a dynamic scan was acquiring using a PET scanner (MOLECUBES, beta-cube) for 60 min. In the blocking studies, GSK189254 (3 mg/kg) in 0.1 mL of saline containing 5% ethanol and 5% Tween-80 was preinjected for 10 min prior to the injection of PET radioligands. The results were reconstructed and analyzed by PMOD 4.3 software.
Quantification of specific tracer binding was performed using volume of distribution (VT) values, derived from compartmental modeling and an image-derived input […]
significant reduction in H3R-rich brain regions such as the cortex and striatum under blocking conditions with GSK189254, enerisant, and cipralisant, confirming the specificity of [18F]3 binding (Table S1).
Table S1. Estimation of V T values by Logan analysis in mice with [ 18F]3 at baseline, GSK189254-blocking (3 mg/kg), enerisant-blocking (3 mg/kg), and cipralisant-blocking (3 mg/kg) conditions.
Group Baseline GSK189254 Enerisant Cipralisant blocking blocking blocking

T5 sequence (P58406 whole entry): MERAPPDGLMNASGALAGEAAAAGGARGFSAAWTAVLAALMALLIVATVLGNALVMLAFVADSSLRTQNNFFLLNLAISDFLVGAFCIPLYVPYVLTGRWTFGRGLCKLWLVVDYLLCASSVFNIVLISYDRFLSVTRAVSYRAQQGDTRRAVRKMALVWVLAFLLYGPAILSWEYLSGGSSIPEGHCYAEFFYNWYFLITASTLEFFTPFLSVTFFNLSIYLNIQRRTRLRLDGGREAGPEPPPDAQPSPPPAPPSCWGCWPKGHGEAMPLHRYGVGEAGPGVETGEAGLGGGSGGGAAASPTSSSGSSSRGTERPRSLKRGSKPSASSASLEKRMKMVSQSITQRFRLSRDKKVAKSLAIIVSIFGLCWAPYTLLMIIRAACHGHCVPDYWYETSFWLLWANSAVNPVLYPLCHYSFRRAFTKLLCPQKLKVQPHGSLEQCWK
T1 sequence (Q9Y5N1 whole entry, species assumed): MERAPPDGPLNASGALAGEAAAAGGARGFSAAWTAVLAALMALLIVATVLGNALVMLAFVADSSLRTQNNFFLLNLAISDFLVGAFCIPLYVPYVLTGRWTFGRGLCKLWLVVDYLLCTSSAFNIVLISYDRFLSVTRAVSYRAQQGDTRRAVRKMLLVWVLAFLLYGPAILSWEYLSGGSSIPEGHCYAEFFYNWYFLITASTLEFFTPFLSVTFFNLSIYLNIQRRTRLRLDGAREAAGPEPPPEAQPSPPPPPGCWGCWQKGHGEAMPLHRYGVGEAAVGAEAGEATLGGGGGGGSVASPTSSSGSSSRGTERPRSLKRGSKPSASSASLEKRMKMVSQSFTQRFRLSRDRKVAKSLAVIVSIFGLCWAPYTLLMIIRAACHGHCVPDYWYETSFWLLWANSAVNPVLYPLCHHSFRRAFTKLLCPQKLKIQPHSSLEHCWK
T2 sequence (Q99720 whole entry, species assumed): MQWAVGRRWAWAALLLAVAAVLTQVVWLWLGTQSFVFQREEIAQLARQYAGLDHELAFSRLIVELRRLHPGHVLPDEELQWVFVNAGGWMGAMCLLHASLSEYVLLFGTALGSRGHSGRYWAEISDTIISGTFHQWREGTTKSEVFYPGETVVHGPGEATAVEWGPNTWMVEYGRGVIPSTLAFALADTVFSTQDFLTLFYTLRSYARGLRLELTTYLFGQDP
Sequence of 5-hydroxytryptamine receptor 2A (5-HT2A) (P28223 whole entry, species assumed): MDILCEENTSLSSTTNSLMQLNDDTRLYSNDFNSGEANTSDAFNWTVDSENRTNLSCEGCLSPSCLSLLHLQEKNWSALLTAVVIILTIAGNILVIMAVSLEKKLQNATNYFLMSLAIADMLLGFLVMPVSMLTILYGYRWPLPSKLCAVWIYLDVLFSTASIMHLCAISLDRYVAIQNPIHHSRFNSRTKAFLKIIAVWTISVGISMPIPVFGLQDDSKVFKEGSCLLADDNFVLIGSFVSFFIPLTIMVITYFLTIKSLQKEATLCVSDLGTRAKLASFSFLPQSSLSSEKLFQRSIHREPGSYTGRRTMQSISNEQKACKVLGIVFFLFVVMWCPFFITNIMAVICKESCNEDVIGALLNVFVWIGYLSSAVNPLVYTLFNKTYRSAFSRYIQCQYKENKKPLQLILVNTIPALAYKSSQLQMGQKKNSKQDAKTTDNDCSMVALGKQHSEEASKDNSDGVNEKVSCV
T4 sequence (Q9QYN8 whole entry): as the sequence (P58406 whole entry) above, with A15T, T286A, G290A, H387R, V389I counted along it
Sequence of sigma-2 (Q5BJF2 whole entry): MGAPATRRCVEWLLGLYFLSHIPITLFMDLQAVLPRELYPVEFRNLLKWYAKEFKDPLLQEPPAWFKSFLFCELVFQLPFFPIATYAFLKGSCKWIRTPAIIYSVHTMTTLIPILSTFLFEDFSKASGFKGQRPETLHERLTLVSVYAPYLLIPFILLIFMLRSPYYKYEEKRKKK

SMILES | IC50 (H3R [1]) [nM] | Ki (H3R [1]) [nM] | logD [2] | inhibition at 10 µM (sigma-1 receptor [3]) [%] | Ki (sigma-1 receptor [4]) [nM] | other results
[11CH3]NC(=O)c1ccc([C@H]2C[C@@H]2C(=O)N2CCN(C3CCC3)CC2)cc1 [AZD13153556, reference compound] | 23.5 |  |  |  |  | 
O=C([C@H]1C[C@@H]1c1ccc(F)cc1)N1CCN(C2CCC2)CC1 [Compound 2, (4-Cyclobutylpiperazin-1-yl)((1S,2S)-2-(4-fluorophenyl)cyclopropyl)methanone] |  |  | 2.76 | 98.1 | 1.61 | 
O=C([C@H]1C[C@@H]1c1ccc(F)cc1)N1CCN(C2CCCC2)CC1 [Compound 3, (4-Cyclopentylpiperazin-1-yl)((1S,2S)-2-(4-fluorophenyl)cyclopropyl)methanone] |  |  | 2.82 | 93.2 | 199 | inhibition at 10 µM [5]: 64.5%; CNS target selectivity [6]: over 300 fold; selectivity of H3R over sigma-1 (sigma-1 receptor [4]): 69 fold; Ki (5-HT2C [7]): > 1000 nM
O=C([C@H]1C[C@@H]1c1ccc(F)cc1)N1CCN(C2CCCCC2)CC1 [Compound 4, (4-Cyclohexylpiperazin-1-yl)((1S,2S)-2-(4-fluorophenyl)cyclopropyl)methanone] |  |  | 3.35 | 94.4 | 1280 | inhibition at 10 µM (sigma-2): 93.6%; inhibition at 10 µM [5]: 59%; inhibition at 10 µM (5-HT2C [8]): 80.3%; CNS target selectivity [6]: over 300 fold; selectivity of H3R over sigma-1 (sigma-1 receptor [4]): 407 fold; Ki (5-HT2C [7]): > 1000 nM
O=C([C@H]1C[C@@H]1c1ccc(F)cc1)N1CCN(C2CCCCCC2)CC1 [Compound 5, (4-Cycloheptylpiperazin-1-yl)((1S,2S)-2-(4-fluorophenyl)cyclopropyl)methanone] | > 1000 | > 1000 |  |  |  | 
O=C([C@H]1C[C@@H]1c1ccc([18F])cc1)N1CCN(C2CCCCC2)CC1 [[^18F]4] |  |  | 3.35 |  |  | reduction in radioactivity across brain regions, GSK189254 blocking (H3R [9]; GSK189254 10 μM): 38.7–68.2%; signal reduction, self-blocking with unlabeled compound (H3R [9]; unlabeled 3 or 4 at 10 μM): 66.6–78.8%; whole-brain signal reduction based on AUC, GSK189254 blocking (H3R [10]; GSK189254 3 mg/kg, 0–60 min): did not yield a significant reduction; time of peak whole-brain uptake (H3R [10]; baseline, CD1 mice): 4.3 min; whole-brain uptake at 60 min (H3R [10]; baseline, CD1 mice): 1.77 SUV; peak whole-brain uptake (H3R [10]; baseline, intravenous injection, CD1 mice): 1.83 SUV; reduction in whole-brain uptake from peak after 60 min dynamic scan (H3R [10]; baseline, washout): 3.3%
O=C([C@H]1C[C@@H]1c1ccc(-c2ccc([18F])nc2)cc1)N1CCN(C2CCC2)CC1 [[^18F]H3-2404, reference compound] |  | 10.2 |  |  |  | 

Now from value to compound, other results behind:

IC50 (H3R [1]) [nM] | Ki (H3R [1]) [nM] | SMILES | logD [2] | inhibition at 10 µM (sigma-1 receptor [3]) [%] | Ki (sigma-1 receptor [4]) [nM] | other results
> 1000 | > 1000 | O=C([C@H]1C[C@@H]1c1ccc(F)cc1)N1CC2(C1)CN(C1CCC1)C2 [Compound 6, (6-Cyclobutyl-2,6-diazaspiro[3.3]heptan-2-yl)((1S,2S)-2-(4-fluorophenyl)cyclopropyl)methanone] |  |  |  | 
> 1000 | > 1000 | O=C([C@H]1C[C@@H]1c1ccc(F)cc1)N1C[C@@H]2C[C@H]1CN2C1CCC1 [Compound 7, ((1S,4S)-5-Cyclobutyl-2,5-diazabicyclo[2.2.1]heptan-2-yl)((1S,2S)-2-(4-fluorophenyl)cyclopropyl)methanone] |  |  |  | 
> 1000 | > 1000 | O=C([C@H]1C[C@@H]1c1ccc(F)cc1)N1C[C@@H]2CN(C3CCC3)C[C@@H]2C1 [Compound 8, ((3aR,6aS)-5-Cyclobutylhexahydropyrrolo[3,4-c]pyrrol-2(1H)-yl)((1S,2S)-2-(4-fluorophenyl)cyclopropyl)methanone] |  |  |  | 
